Measurements reported in ChEMBL document CHEMBL1201862, “PubChem BioAssay data set” (2004).
The source made the active and inactive calls.

Key:
[1] = target: T1, Dual specificity protein phosphatase 6 (Rattus norvegicus, UniProt Q64346); assay type: functional
T1 sequence (Q64346 whole entry): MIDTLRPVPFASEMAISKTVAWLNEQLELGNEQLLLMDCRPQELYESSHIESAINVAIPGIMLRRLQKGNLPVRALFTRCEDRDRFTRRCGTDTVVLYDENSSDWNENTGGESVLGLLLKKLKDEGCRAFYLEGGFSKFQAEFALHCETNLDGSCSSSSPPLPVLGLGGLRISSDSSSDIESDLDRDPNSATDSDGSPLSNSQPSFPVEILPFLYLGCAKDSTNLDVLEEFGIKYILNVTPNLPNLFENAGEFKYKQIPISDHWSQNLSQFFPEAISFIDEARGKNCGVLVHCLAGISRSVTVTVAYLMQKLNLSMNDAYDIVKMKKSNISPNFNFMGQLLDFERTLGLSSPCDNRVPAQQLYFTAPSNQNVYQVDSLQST

[2] = target: Glyceraldehyde-3-phosphate dehydrogenase (Homo sapiens, UniProt P04406)
Chain of Glyceraldehyde-3-phosphate dehydrogenase (P04406 whole entry): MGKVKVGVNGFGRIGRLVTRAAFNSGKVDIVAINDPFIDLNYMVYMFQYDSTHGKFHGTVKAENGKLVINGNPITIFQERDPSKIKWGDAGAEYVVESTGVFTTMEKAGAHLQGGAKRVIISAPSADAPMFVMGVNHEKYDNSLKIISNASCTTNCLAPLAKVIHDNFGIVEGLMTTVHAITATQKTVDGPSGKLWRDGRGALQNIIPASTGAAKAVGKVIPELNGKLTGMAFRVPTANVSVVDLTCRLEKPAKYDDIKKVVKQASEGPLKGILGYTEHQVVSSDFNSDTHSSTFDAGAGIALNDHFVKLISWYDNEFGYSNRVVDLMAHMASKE

[3] = target: T2, Tyrosine-protein phosphatase non-receptor type 7 (Homo sapiens, UniProt P35236); assay type: functional
T2 sequence (P35236 whole entry): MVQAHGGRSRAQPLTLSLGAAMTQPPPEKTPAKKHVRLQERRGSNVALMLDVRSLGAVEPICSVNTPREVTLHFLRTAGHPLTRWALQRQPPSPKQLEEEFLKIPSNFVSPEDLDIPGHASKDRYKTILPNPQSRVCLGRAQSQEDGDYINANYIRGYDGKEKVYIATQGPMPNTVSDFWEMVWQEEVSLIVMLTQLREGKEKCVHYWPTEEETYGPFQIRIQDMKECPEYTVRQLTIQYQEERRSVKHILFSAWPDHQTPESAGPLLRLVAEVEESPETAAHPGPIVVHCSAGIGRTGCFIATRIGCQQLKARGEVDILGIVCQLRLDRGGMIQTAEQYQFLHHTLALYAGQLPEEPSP

[4] = target: T1, Dual specificity protein phosphatase 6
HeLa = assay: HeLa cell cytotoxicity, dose response, cytotoxicity control for MITF activator project, CellTiter-Glo luminescence, cherry-pick samples (AID 540259); assay type: functional, cell-based; details: Homo sapiens
[5] = target: T3, Voltage-gated N-type calcium channel alpha-1B subunit/Amyloid beta A4 precursor protein-binding family A member 1 (Homo sapiens, UniProt Q00975+Q02410); assay type: protein assay
T3 sequence (Q00975 whole entry): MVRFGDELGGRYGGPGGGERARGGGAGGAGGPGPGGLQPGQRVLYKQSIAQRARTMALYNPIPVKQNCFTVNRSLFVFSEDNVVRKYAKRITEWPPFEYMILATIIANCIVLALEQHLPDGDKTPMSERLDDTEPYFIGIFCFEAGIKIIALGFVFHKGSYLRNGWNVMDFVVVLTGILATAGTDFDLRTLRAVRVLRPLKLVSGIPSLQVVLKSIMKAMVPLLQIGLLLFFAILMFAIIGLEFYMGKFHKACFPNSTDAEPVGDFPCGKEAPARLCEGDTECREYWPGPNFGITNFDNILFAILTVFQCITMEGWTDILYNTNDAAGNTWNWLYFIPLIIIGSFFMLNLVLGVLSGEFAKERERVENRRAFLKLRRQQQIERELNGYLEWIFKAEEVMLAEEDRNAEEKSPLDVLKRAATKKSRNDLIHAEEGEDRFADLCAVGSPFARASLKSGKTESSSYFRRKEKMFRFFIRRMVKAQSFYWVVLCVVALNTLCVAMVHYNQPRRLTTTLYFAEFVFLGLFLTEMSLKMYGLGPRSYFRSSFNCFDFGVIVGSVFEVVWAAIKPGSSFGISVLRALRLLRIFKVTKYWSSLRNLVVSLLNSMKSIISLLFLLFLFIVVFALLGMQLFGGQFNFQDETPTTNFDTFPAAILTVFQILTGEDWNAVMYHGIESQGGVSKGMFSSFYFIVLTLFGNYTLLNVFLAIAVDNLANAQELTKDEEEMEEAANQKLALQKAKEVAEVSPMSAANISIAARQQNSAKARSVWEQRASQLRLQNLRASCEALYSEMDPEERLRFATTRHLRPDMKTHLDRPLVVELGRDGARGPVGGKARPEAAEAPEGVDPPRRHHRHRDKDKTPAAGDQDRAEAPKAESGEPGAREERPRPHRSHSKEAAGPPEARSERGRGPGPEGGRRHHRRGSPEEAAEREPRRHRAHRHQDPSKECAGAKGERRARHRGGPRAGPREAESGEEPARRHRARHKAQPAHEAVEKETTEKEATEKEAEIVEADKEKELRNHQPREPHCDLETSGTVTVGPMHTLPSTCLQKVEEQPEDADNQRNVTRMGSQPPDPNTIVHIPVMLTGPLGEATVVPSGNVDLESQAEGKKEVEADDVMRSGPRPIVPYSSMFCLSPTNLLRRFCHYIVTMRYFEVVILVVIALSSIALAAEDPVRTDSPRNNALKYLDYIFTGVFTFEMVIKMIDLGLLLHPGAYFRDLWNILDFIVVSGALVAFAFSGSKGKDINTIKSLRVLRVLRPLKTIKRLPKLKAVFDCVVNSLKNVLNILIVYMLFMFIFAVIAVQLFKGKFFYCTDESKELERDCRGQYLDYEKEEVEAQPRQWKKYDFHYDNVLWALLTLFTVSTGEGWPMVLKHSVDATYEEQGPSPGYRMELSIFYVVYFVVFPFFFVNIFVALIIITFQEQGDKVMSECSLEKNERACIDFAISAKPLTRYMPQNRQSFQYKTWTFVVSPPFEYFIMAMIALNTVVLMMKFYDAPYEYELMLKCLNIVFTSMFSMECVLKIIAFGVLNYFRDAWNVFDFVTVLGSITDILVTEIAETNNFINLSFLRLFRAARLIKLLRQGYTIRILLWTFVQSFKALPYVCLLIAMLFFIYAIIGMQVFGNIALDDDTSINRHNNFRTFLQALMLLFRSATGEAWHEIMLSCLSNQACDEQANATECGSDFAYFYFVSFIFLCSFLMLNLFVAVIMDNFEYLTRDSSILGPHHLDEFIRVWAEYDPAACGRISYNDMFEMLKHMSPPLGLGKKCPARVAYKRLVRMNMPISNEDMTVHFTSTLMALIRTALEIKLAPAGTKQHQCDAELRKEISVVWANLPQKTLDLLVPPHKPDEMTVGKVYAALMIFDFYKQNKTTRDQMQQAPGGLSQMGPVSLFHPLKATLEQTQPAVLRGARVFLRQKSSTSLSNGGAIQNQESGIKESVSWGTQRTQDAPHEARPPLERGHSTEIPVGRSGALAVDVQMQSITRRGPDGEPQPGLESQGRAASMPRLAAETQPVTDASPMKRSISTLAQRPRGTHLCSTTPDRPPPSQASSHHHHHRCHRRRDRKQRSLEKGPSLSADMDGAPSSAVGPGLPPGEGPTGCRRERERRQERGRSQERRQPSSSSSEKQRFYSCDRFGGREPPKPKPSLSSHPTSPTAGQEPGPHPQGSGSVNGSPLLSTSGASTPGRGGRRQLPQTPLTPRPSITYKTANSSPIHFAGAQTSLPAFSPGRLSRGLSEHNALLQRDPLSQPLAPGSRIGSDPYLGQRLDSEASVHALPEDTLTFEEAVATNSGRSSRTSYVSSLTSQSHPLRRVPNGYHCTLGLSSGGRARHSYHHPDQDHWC
T3 sequence (Q02410 whole entry): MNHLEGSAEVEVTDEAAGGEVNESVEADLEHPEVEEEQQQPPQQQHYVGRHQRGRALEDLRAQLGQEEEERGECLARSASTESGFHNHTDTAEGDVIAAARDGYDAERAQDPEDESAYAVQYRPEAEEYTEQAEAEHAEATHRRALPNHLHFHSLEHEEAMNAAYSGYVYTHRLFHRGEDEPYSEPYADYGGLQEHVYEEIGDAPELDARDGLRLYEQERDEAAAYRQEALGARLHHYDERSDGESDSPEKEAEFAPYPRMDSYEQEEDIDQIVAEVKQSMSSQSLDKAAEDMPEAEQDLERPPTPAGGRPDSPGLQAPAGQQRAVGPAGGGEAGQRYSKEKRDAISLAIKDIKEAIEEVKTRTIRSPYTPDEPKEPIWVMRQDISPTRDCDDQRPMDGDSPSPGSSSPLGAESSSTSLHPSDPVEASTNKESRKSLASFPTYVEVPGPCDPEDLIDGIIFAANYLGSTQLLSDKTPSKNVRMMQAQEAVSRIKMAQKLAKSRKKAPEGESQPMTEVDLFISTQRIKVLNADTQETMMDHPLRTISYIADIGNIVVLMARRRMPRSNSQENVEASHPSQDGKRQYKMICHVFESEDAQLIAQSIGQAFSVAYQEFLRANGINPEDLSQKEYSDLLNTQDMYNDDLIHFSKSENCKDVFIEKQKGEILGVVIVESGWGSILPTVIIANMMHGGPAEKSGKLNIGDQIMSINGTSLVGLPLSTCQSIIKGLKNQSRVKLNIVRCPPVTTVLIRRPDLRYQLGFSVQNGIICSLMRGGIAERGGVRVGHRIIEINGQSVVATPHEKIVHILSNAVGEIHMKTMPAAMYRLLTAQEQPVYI

Escherichia coli [6] = assay: microbe, parasite or virus in culture
[7] = target: T3, Voltage-gated N-type calcium channel alpha-1B subunit/Amyloid beta A4 precursor protein-binding family A member 1; assay type: protein assay; remark: listed apart in the source
Escherichia coli [8] = assay: microbe, parasite or virus in culture; remark: listed apart in the source
BJ [9] = assay: cells; assay type: functional, cell-based; details: Homo sapiens
[10] = inhibitors of SNCA 5'UTR-driven reporter translation, confirmation, H4 neuroglioma cells, luminescence (AID 1988); assay type: functional, cell-based
BJ [11] = assay: cytotoxicity toward BJ-TERT-LT-ST fibroblasts, dose response, cell-based, RAS-independent, luminescence (AID 1935); assay type: functional; details: Homo sapiens;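 further: BJ fibroblasts immortalized with TERT plus LT and ST oncogenes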
[12] = Luminescence Cell-Based Dose Response HTS to Identify Inhibitors of 5'UTR Stem-Loop Driven Prion Protein mRNA Translation in H4 Neuroglioblastoma Cells. [Related pubchem assays: 1827 (Project Summary), 1813 (Primary HTS)]; assay type: functional
BJ [13] = assay: cytotoxicity toward BJ-TERT fibroblasts, dose response, cell-based, RAS-independent, luminescence (AID 1933); assay type: functional; details: Homo sapiens
[14] = cytotoxicity toward DRD oncogenic fibroblasts, dose response, cell-based, non-viral oncogenic, luminescence (AID 1934); assay type: functional; details: Homo sapiens
BJ [15] = assay: cytotoxicity toward Ras-transformed BJeLR fibroblasts, dose response, cell-based, alamar blue fluorescence, cherrypicked samples (AID 2631); assay type: functional; details: Homo sapiens;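 further: confirmatory dose-response assay in RAS-dependent BJ fibroblasts engineered with TERT, LT and ST, with cytotoxicity read by fluorescence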
[16] = microbe, parasite or virus in culture; assay type: functional; details: Mycobacterium tuberculosis
[17] = inhibitors of firefly luciferase expression or activity, dose response, H4 neuroglioma cells, luminescence (AID 1990); assay type: functional, cell-based
[18] = cytotoxicity in HEK-293T cells, dose response, cytotoxicity control for TCR NF-kB inhibitor project, luminescence, T-cell screen hits (AID 489026); assay type: functional, cell-based;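 further: cells exposed to compound about 14 hours before the viability readout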
[19] = HEp-2 cell cytotoxicity, dose response, cytotoxicity control for RSV inhibitor project, HTS (AID 2410); assay type: functional; details: human respiratory syncytial virus
[20] = target: T4, Serine/threonine-protein phosphatase (Candida dubliniensis (strain CD36 / CBS 7987 / NCPF 3949 / NRRLY-17841) (Yeast), UniProt B9W6M3); assay: calcineurin pathway inhibitors in yeast reporter, dose response, S. cerevisiae, CDRE-lacZ, luminescence, secondary (AID 2388); assay type: functional, cell-based;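 further: yeast reporter cells carrying a calcineurin-responsive lacZ construct stimulated with calcium chloride; luminescent beta-galactosidase reporter signal in whole cells rather than isolated phosphatase activity; potency for inhibition where a drop in reporter signal means calcineurin blockade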
T4 sequence (B9W6M3 whole entry): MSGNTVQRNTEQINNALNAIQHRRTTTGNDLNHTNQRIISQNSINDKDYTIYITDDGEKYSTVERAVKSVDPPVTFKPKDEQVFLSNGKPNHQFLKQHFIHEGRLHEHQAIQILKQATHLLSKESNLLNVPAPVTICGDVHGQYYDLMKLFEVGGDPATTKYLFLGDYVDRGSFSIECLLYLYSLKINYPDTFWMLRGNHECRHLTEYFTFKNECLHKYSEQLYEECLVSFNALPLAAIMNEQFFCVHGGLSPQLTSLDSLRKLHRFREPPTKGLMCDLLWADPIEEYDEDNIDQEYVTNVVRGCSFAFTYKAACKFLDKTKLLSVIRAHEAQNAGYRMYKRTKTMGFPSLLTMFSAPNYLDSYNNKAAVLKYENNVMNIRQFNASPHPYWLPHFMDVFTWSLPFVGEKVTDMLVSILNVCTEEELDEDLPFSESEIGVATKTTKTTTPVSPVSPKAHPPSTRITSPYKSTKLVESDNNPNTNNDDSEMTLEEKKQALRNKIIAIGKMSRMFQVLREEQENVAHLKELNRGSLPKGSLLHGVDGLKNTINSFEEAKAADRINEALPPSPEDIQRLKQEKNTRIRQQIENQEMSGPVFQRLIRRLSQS

[21] = NIH-3T3 fibroblast cytotoxicity, dose response, cytotoxicity control, cell-based, fluorescence, Alamar Blue, secondary assay (AID 2327); assay type: functional;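 further: NIH-3T3 mouse fibroblasts cultured with fluconazole at 8 µg/mL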
[22] = target: ATP-dependent molecular chaperone HSP82 (Candida albicans (strain WO-1) (Yeast), UniProt C4YTQ8); assay: loss of DOC-induced GRE-beta-galactosidase reporter signal, dose response, Hsp90 inhibitor project, S. cerevisiae, luminescence (AID 2400); assay type: functional, cell-based;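 further: beta-galactosidase luminescence from glucocorticoid response element reporter as proxy for Hsp90 function; inhibitor potency where signal loss means Hsp90 inhibition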
Chain of ATP-dependent molecular chaperone HSP82 (C4YTQ8 whole entry): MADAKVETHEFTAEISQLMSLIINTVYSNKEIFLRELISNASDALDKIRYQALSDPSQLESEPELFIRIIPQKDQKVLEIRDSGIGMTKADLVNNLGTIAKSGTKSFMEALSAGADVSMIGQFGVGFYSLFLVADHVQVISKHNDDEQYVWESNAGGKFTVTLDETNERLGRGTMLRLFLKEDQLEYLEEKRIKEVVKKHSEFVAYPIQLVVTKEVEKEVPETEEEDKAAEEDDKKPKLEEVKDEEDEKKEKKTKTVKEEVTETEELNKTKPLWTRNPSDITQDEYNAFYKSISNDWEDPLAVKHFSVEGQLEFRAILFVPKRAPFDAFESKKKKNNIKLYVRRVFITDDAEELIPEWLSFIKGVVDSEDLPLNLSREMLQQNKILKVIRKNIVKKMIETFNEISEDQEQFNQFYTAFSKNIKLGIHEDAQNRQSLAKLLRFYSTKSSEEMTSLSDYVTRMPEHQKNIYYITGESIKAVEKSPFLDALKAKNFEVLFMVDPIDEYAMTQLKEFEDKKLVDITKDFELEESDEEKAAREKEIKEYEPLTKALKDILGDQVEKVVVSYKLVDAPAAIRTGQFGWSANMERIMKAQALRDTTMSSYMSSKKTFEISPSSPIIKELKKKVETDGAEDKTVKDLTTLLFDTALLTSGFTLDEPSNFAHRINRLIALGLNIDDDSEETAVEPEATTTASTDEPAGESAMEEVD

[23] = C. albicans growth with fluconazole, confirmation, fluorescence, retest (AID 2467); assay type: functional, cell-based

CCn1c(=O)n(Cc2ccccc2C)c(=O)n([C@@H](Cc2ccccc2)C(=O)O)c1=O
IC50 [1]: > 100 µM (inactive)
IC50 [2]: > 100 µM (not active)
IC50 [3]: > 100 µM (not active)
IC50 [4]: > 100 µM (inactive)

CN(/N=C/c1ccc2c(c1)OCO2)c1ccccc1
AC50 (HeLa): 98.3 µM (active)

O=C(O)CCc1ccc(-c2cccs2)o1
IC50 [5]: 21.3 µM (active)
AC50 (Escherichia coli [6]): > 380 µM (inactive)
IC50 [7]: 3.13 µM (active)

O=C(CSCc1ccc(Cl)cc1)Nc1ccc(-c2nnc(-c3ccccc3)o2)cc1
AC50 (Escherichia coli [8]): 23.9 µM (active)
AC50 (Escherichia coli [6]): 58.8 µM (active)

CCCCOc1ccc(Br)cc1/C(C)=N/NC1=NCCN1
EC50 (BJ [9]): 8.49 µM (inconclusive)
EC50 [10]: 3.86 µM (active)
EC50 (BJ [11]): 6.41 µM (inconclusive)
EC50 [12]: 4.92 µM (active)
EC50 (BJ [13]): 3.18 µM (inconclusive)
EC50 [14]: 6.08 µM (active)
EC50 (BJ [15]): 0.619 µM (inconclusive)
CC50 [16]: 8.31 µM (active)
EC50 [17]: 4.71 µM (inconclusive)
IC50 [18]: 46.8 µM (inactive)

C(=N\Nc1nc2ccccc2[nH]1)/c1ccc2ncccc2c1
EC50 (BJ [9]): 2.75 µM (inconclusive)
EC50 (BJ [11]): 30.7 µM (active)
EC50 (BJ [13]): 10.8 µM (active)
EC50 [14]: 2.32 µM (inconclusive)
EC50 (BJ [15]): > 133 µM (inactive)
CC50 [19]: 2.99 µM (active)

C=CCN(CC=C)Cc1c(O)ccc2c(=O)c(-c3ccccc3)coc12
EC50 [20]: > 180 µM (inactive)
EC50 [21]: 131 µM (active)
EC50 [22]: > 150 µM (inactive)
EC50 [23]: < 0.03 µM (active)
